Patent US9346815B2, “5-chloro-2-difluoromethoxyphenyl pyrazolopyrimidine compounds, compositions and methods of use thereof” (Genentech, Inc., priority 2014, dated 2016)

Tests used:
[1] = biological target: isolated recombinant JAK2 kinase domain (Homo sapiens (Human), UniProt O60674); experiment: JAK2 enzyme assay (Caliper LabChip, peptide phosphorylation); type: biochemical; details: 25 μM ATP
[2] = biological target: isolated recombinant JAK1 kinase domain (Homo sapiens (Human), UniProt P23458); experiment: JAK1 enzyme assay (Caliper LabChip, peptide phosphorylation); type: biochemical; details: isolated recombinant JAK1 kinase domain, 25 μM ATP
isolated recombinant JAK1 kinase domain, sequence (P23458 875-1153): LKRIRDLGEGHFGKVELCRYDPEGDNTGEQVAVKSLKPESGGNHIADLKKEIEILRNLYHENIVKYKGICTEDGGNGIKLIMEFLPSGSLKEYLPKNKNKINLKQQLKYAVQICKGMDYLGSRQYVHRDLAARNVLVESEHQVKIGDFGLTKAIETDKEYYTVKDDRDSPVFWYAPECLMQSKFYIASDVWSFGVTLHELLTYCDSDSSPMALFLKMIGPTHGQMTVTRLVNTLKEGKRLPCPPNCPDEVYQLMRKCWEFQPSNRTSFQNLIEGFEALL

isolated recombinant JAK2 kinase domain, sequence (O60674 849-1124): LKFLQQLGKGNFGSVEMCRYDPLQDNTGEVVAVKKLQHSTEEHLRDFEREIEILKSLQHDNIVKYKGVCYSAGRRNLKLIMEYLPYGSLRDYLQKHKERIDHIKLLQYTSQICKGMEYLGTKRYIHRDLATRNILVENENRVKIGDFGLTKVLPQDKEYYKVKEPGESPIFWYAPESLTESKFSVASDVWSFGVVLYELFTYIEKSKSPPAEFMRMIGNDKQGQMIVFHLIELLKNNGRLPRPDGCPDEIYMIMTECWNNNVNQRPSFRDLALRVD

Compound	Ki [1] [nM]	Ki [2] [nM]
Nc1nn2cccnc2c1C(=O)Nc1cn([C@@H]2CCNC2)nc1-c1cc(Cl)ccc1OC(F)F [Example 185, 2-amino-N-[3-[5-chloro-2-(difluoromethoxy)phenyl]-1-[(3R)-pyrrolidin-3-yl]pyrazol-4-yl]pyrazolo[1,5-a]pyrimidine-3-carboxamide]	0.31	0.59
O=C(Nc1cn(CC(=O)N2CCN3CCCCC3C2)nc1-c1cc(Cl)ccc1OC(F)F)c1cnn2cccnc12 (centres unmarked) [Example 241, N-[1-[2-(1,3,4,6,7,8,9,9a-octahydropyrido[1,2-a]pyrazin-2-yl)-2-oxo-ethyl]-3-[5-chloro-2-(difluoromethoxy)phenyl]pyrazol-4-yl]pyrazolo[1,5-a]pyrimidine-3-carboxamide]	1.25	0.87
COCCN1CCN(C(=O)Cn2cc(NC(=O)c3c(N)nn4cccnc34)c(-c3cc(Cl)ccc3OC(F)F)n2)CC1 [Example 245, 2-amino-N-[3-[5-chloro-2-(difluoromethoxy)phenyl]-1-[2-[4-(2-methoxyethyl)piperazin-1-yl]-2-oxo-ethyl]pyrazol-4-yl]pyrazolo[1,5-a]pyrimidine-3-carboxamide]	0.22	0.35
CN(CC1(C#N)CCCCC1)C1CCN(c2nc(-c3cc(Cl)ccc3OC(F)F)c(NC(=O)c3cnn4cccnc34)s2)CC1 [Example 203, N-[4-[5-chloro-2-(difluoromethoxy)phenyl] 2-[4-[(1-cyanocyclohexyl)methyl-methyl-amino]-1-piperidyl]thiazol-5-yl]pyrazolo[1,5-a]pyrimidine-3-carboxamide]	4.15	5.48
CN(C)C[C@H]1CCCN(C(=O)Cn2cc(NC(=O)c3cnn4cccnc34)c(-c3cc(Cl)ccc3OC(F)F)n2)C1 [Example 71, N-[3-[5-chloro-2-(difluoromethoxy)phenyl]-1-[2-[(3R)-3-[(dimethylamino)methyl]-1-piperidyl]-2-oxo-ethyl]pyrazol-4-yl]pyrazolo[1,5-a]pyrimidine-3-carboxamide]	4.66	1.06
Nc1nn2cccnc2c1C(=O)Nc1cn(CC(=O)N2CCN(CC3CC3)CC2)nc1-c1cc(Cl)ccc1OC(F)F [Example 248, 2-amino-N-[3-[5-chloro-2-(difluoromethoxy)phenyl]-1-[2-[4-(cyclopropyl-methyl)piperazin-1-yl]-2-oxo-ethyl]pyrazol-4-yl]pyrazolo[1,5-a]pyrimidine-3-carboxamide]	0.39	0.62
Nc1nn2cccnc2c1C(=O)Nc1cn(CC(=O)N2CCC(F)(F)C2)nc1-c1cc(Cl)ccc1OC(F)F [Example 282, 2-amino-N-[3-[5-chloro-2-(difluoromethoxy)phenyl]-1-[2-(3,3-difluoropyrrolidin-1-yl)-2-oxo-ethyl]pyrazol-4-yl]pyrazolo[1,5-a]pyrimidine-3-carboxamide]	0.12	0.17
CCN1CCN(C(=O)Cn2cc(NC(=O)c3c(N)nn4cccnc34)c(-c3cc(Cl)ccc3OC(F)F)n2)CC1 [Example 247, 2-amino-N-[3-[5-chloro-2-(difluoromethoxy)phenyl]-1-[2-(4-ethylpiperazin-1-yl)-2-oxo-ethyl]pyrazol-4-yl]pyrazolo[1,5-a]pyrimidine-3-carboxamide]	0.3	0.55
O=C(Nc1cn(CC(=O)N2CCOC(CO)C2)nc1-c1cc(Cl)ccc1OC(F)F)c1cnn2cccnc12 (centres unmarked) [Example 277, N-[3-[5-chloro-2-(difluoromethoxy)phenyl]-1-[2-[2-(hydroxy-methyl)morpholin-4-yl]-2-oxo-ethyl]pyrazol-4-yl]pyrazolo[1,5-a]pyrimidine-3-carboxamide]	0.83	0.51
CN1CCC2CN(C(=O)Cn3cc(NC(=O)c4cnn5cccnc45)c(-c4cc(Cl)ccc4OC(F)F)n3)CC2C1 (centres unmarked) [Example 30, N-[3-[5-chloro-2-(difluoromethoxy)phenyl]-1-[2-(5-methyl-3,3a,4,6,7,7a-hexahydro-1H-pyrrolo[3,4-c]pyridin-2-yl)-2-oxo-ethyl]pyrazol-4-yl]pyrazolo[1,5-a]pyrimidine-3-carboxamide]	1.69	0.7
O=C(Nc1cn(CC(=O)N2CCC(O)(c3ccncc3)CC2)nc1-c1cc(Cl)ccc1OC(F)F)c1cnn2cccnc12 [Example 276, N-[3-[5-chloro-2-(difluoromethoxy)phenyl]-1-[2-[4-hydroxy-4-(4-pyridyl)-1-piperidyl]-2-oxo-ethyl]pyrazol-4-yl]pyrazolo[1,5-a]pyrimidine-3-carboxamide]	0.18	0.23
Nc1nn2cccnc2c1C(=O)Nc1cn(CC(=O)N2CCC(O)(c3ccccc3)CC2)nc1-c1cc(Cl)ccc1OC(F)F [Example 286, 2-amino-N-[3-[5-chloro-2-(difluoromethoxy)phenyl]-1-[2-(4-hydroxy-4-phenyl-1-piperidyl)-2-oxo-ethyl]pyrazol-4-yl]pyrazolo[1,5-a]pyrimidine-3-carboxamide]	0.26	0.54
CN(C)C1CN(C(=O)Cn2cc(NC(=O)c3cnn4cccnc34)c(-c3cc(Cl)ccc3OC(F)F)n2)C1 [Example 64, N-[3-[5-chloro-2-(difluoromethoxy)phenyl]-1-[2-[3-(dimethylamino)azetidin-1-yl]-2-oxo-ethyl]pyrazol-4-yl]pyrazolo[1,5-a]pyrimidine-3-carboxamide]	0.84	0.66
N#Cc1ccc(N2CCN(C(=O)Cn3cc(NC(=O)c4cnn5cccnc45)c(-c4cc(Cl)ccc4OC(F)F)n3)CC2)cc1 [Example 237, N-[3-[5-chloro-2-(difluoromethoxy)phenyl]-1-[2-[4-(4-cyanophenyl)piperazin-1-yl]-2-oxo-ethyl]pyrazol-4-yl]pyrazolo[1,5-a]pyrimidine-3-carboxamide]	0.76	0.32
CN(C)C1CN(C(=O)Cn2cc(NC(=O)c3c(N)nn4cccnc34)c(-c3cc(Cl)ccc3OC(F)F)n2)C1 [Example 138, 2-amino-N-[3-[5-chloro-2-(difluoromethoxy)phenyl]-1-[2-[3-(dimethylamino)azetidin-1-yl]-2-oxo-ethyl]pyrazol-4-yl]pyrazolo[1,5-a]pyrimidine-3-carboxamide]		0.52
C[C@@H]1CN(C(=O)Cn2cc(NC(=O)c3c(N)nn4cccnc34)c(-c3cc(Cl)ccc3OC(F)F)n2)C[C@H](C)N1 [Example 251, 2-amino-N-[3-[5-chloro-2-(difluoromethoxy)phenyl]-1-[2-[(3R,5S)-3,5-dimethylpiperazin-1-yl]-2-oxo-ethyl]pyrazol-4-yl]pyrazolo[1,5-a]pyrimidine-3-carboxamide]		0.83
Nc1nn2cccnc2c1C(=O)Nc1cn(CC(=O)N2CC[C@H](O)C2)nc1-c1cc(Cl)ccc1OC(F)F [Example 270, 2-amino-N-[3-[5-chloro-2-(difluoromethoxy)phenyl]-1-[2-[(3S)-3-hydroxypyrrolidin-1-yl]-2-oxo-ethyl]pyrazol-4-yl]pyrazolo[1,5-a]pyrimidine-3-carboxamide]	0.2	
CN1CCC2(CC1)CN(C(=O)Cn1cc(NC(=O)c3c(N)nn4cccnc34)c(-c3cc(Cl)ccc3OC(F)F)n1)CCO2 [Example 215, 2-amino-N-[3-[5-chloro-2-(difluoromethoxy)phenyl]-1-[2-(9-methyl-1-oxa-4,9-diazaspiro[5.5]undecan-4-yl)-2-oxo-ethyl]pyrazol-4-yl]pyrazolo[1,5-a]pyrimidine-3-carboxamide]		1.33
